These results are taken from patent US11866518B2, “Bicyclic peptide ligands specific for TSLP” (BicycleTx Limited, priority 2020, dated 2024).

Molecules are shown by their SMILES. *1 amine or outer side, *2 acyl side, *3 side chain or, on linkers, in order; H or OH if unused. Where a SMILES comes first, the peptide text is derived from it. Bridges are numbered along the chain shown (N, C = ends). TATA = O=C(CC[*:1])N1CN(C(=O)CC[*:2])CN(C(=O)CC[*:3])C1

This assay deals with TSLP (Homo sapiens, UniProt Q969D9). The assay can be described thus: Human TSLP Surface Plasmon Resonance (SPR) binding assay. Also noted: The resulting construct spCD33-6×HN-TEV-hTSLP(29-159)-Avi; 6xHN tag with TEV site (N, cleaved yes); made in house; host or cells: Expi293F cells. The following applies: biotinylated human TSLP immobilized on streptavidin chip; 20° C.; steady-state or kinetic 1:1 fit; read-out: hTSLP SPR Kd.
TSLP, sequence (Q969D9 29-159): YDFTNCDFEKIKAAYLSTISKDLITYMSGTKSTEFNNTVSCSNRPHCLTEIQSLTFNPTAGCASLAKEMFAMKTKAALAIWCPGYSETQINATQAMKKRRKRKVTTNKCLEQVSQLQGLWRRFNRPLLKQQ
On to `CC(C)C[C@@H]1NC(=O)[C@H](Cc2c[nH]c3ccccc23)NC(=O)[C@@H]2CSCCC(=O)N3CN(CN(C3)C(=O)CCSC[C@H](NC(=O)[C@H](CCC(=O)O)NC(=O)[C@H](Cc3c[nH]cn3)NC(=O)[C@H](Cc3c[nH]cn3)NC(=O)[C@H](CCC(N)=O)NC(=O)[C@H](CCC(=O)O)NC(=O)[C@@H](N)CC(=O)O)C(=O)N[C@@H](CC(=O)O)C(=O)N[C@@H](Cc3c[nH]c4ccccc34)C(=O)N[C@@H](Cc3c[nH]cn3)C(=O)N[C@@H](Cc3c[nH]c4ccccc34)C(=O)N[C@@H](CCC(=O)O)C(=O)N[C@@H](Cc3ccc(O)cc3)C(=O)N[C@@H](CC(=O)O)C(=O)N2)C(=O)CCSC[C@@H](C(=O)N[C@@H](C)C(N)=O)NC(=O)[C@H](CO)NC1=O` [Example 209, DEQHHE-(SEQ ID NO: 144)-A], for which the Kd is 910 nM.
Consider `CC(C)C[C@@H]1NC(=O)[C@H](Cc2c[nH]c3ccccc23)NC(=O)[C@@H]2CSCCC(=O)N3CN(CN(C3)C(=O)CCSC[C@H](NC(=O)[C@@H]3CCCN3C(=O)[C@@H]3CCCN3C(=O)[C@H](CCC(=O)O)NC(=O)[C@@H](NC(=O)[C@@H]3CCCN3C(=O)[C@@H](N)CO)[C@@H](C)O)C(=O)N[C@@H](CC(=O)O)C(=O)N[C@@H](Cc3c[nH]c4ccccc34)C(=O)N[C@@H](Cc3c[nH]cn3)C(=O)N[C@@H](Cc3c[nH]c4ccccc34)C(=O)N[C@@H](CCC(=O)O)C(=O)N[C@@H](Cc3ccc(O)cc3)C(=O)N[C@@H](CC(=O)O)C(=O)N2)C(=O)CCSC[C@@H](C(N)=O)NC(=O)[C@H](CO)NC1=O` [Example 215, SPTEPP-(SEQ ID NO: 144)], for which the Kd worked out at 240 nM.
The same measure for `CC(C)C[C@@H]1NC(=O)[C@H](Cc2c[nH]c3ccccc23)NC(=O)[C@@H]2CSCCC(=O)N3CN(CN(C3)C(=O)CCSC[C@H](NC(=O)[C@H](CCC(=O)O)NC(=O)[C@H](CO)NC(=O)[C@@H]3CCCN3C(=O)[C@H](CO)NC(=O)[C@H](CCCNC(=N)N)NC(=O)[C@@H](N)CC(N)=O)C(=O)N[C@@H](CC(=O)O)C(=O)N[C@@H](Cc3c[nH]c4ccccc34)C(=O)N[C@@H](Cc3c[nH]cn3)C(=O)N[C@@H](Cc3c[nH]c4ccccc34)C(=O)N[C@@H](CCC(=O)O)C(=O)N[C@@H](Cc3ccc(O)cc3)C(=O)N[C@@H](CC(=O)O)C(=O)N2)C(=O)CCSC[C@@H](C(N)=O)NC(=O)[C@H](CO)NC1=O` [Example 217, NRSPSE-(SEQ ID NO: 144)]: 860 nM.
Regarding `CC(=O)N[C@H]1CSCCC(=O)N2CN3CN(C2)C(=O)CCSC[C@H](NC(=O)[C@H](CC(=O)O)NC(=O)[C@H](Cc2ccc(O)cc2)NC(=O)[C@H](CCC(=O)O)NC(=O)[C@H](Cc2c[nH]c4ccccc24)NC(=O)[C@H](Cc2c[nH]cn2)NC(=O)[C@H](Cc2c[nH]c4ccccc24)NC(=O)[C@H](CC(=O)O)NC1=O)C(=O)N[C@@H](Cc1c[nH]c2ccccc12)C(=O)N[C@@H](CC(C)C)C(=O)N[C@@H](CO)C(=O)N[C@H](C(N)=O)CSCCC3=O` [Example 218, Ac-(SEQ ID NO: 144)], the Kd amounted to 2000 nM.
For the molecule `CC(C)C[C@@H]1NC(=O)[C@H](Cc2c[nH]c3ccccc23)NC(=O)[C@@H]2CSCCC(=O)N3CN(CN(C3)C(=O)CCSC[C@H](NC(=O)[C@H](CC(=O)O)NC(=O)[C@H](CC(N)=O)NC(=O)[C@H](C)N)C(=O)N[C@@H](C(C)C)C(=O)N[C@@H](Cc3c[nH]c4ccccc34)C(=O)N[C@@H](Cc3c[nH]cn3)C(=O)N[C@@H](Cc3c[nH]c4ccccc34)C(=O)N[C@@H](CCC(=O)O)C(=O)N[C@@H](Cc3ccc(O)cc3)C(=O)N[C@@H](CC(=O)O)C(=O)N2)C(=O)CCSC[C@@H](C(=O)N[C@@H](C)C(N)=O)NC(=O)[C@H](CC(=O)O)NC1=O` [Example 220, AND-(SEQ ID NO: 154)-A] (H-ANDCVWHWEYDCWLDCA-NH2; linker 4-12-16 via TATA; N-terminus and C-terminus assumed), the Kd worked out at 340 nM.
The same measure for `CSCC[C@H](NC(=O)[C@H](CC(=O)O)NC(=O)CNC(=O)[C@@H]1CSCCC(=O)N2CN3CN(C2)C(=O)CCSC[C@H](N)C(=O)N[C@@H](CC(=O)O)C(=O)N[C@@H](Cc2c[nH]c4ccccc24)C(=O)N[C@@H](Cc2c[nH]cn2)C(=O)N[C@@H](Cc2c[nH]c4ccccc24)C(=O)N[C@@H](CCC(=O)O)C(=O)N[C@@H](Cc2ccc(O)cc2)C(=O)N[C@@H](CC(=O)O)C(=O)N[C@@H](CSCCC3=O)C(=O)N[C@@H](Cc2c[nH]c3ccccc23)C(=O)N[C@@H](CC(C)C)C(=O)N[C@@H](CO)C(=O)N1)C(=O)N[C@@H](CO)C(=O)N[C@H](C(=O)N[C@@H](CO)C(N)=O)C(C)C` [Example 222, (SEQ ID NO: 144)-GDMSVS]: 450 nM.
The same measure for `CSCC[C@H](NC(=O)[C@H](CCC(=O)O)NC(=O)[C@H](CC(N)=O)NC(=O)[C@H](CC(=O)O)NC(=O)[C@H](Cc1ccc(O)cc1)NC(=O)[C@@H]1CSCCC(=O)N2CN3CN(C2)C(=O)CCSC[C@H](N)C(=O)N[C@@H](CC(=O)O)C(=O)N[C@@H](Cc2c[nH]c4ccccc24)C(=O)N[C@@H](Cc2c[nH]cn2)C(=O)N[C@@H](Cc2c[nH]c4ccccc24)C(=O)N[C@@H](CCC(=O)O)C(=O)N[C@@H](Cc2ccc(O)cc2)C(=O)N[C@@H](CC(=O)O)C(=O)N[C@@H](CSCCC3=O)C(=O)N[C@@H](Cc2c[nH]c3ccccc23)C(=O)N[C@@H](CC(C)C)C(=O)N[C@@H](CO)C(=O)N1)C(=O)N[C@@H](CO)C(N)=O` [Example 223, (SEQ ID NO: 144)-YDNEMS]: 3000 nM; for `CC(C)C[C@@H]1NC(=O)[C@H](Cc2c[nH]c3ccccc23)NC(=O)[C@@H]2CSCCC(=O)N3CN(CN(C3)C(=O)CCSC[C@H](N)C(=O)N[C@@H](CC(=O)O)C(=O)N[C@@H](Cc3c[nH]c4ccccc34)C(=O)N[C@@H](Cc3c[nH]cn3)C(=O)N[C@@H](Cc3c[nH]c4ccccc34)C(=O)N[C@@H](CCC(=O)O)C(=O)N[C@@H](Cc3ccc(O)cc3)C(=O)N[C@@H](CC(=O)O)C(=O)N2)C(=O)CCSC[C@@H](C(=O)N[C@@H](C)C(=O)N[C@@H](CC(N)=O)C(=O)N[C@@H](CO)C(=O)N[C@@H](CCC(=O)O)C(=O)N[C@@H](Cc2ccccc2)C(=O)N[C@@H](CCC(=O)O)C(N)=O)NC(=O)[C@H](CO)NC1=O` [Example 227, (SEQ ID NO: 144)-ANSEFE]: 740 nM.
The same measure for `CC(C)C[C@@H]1NC(=O)[C@H](Cc2c[nH]c3ccccc23)NC(=O)[C@@H]2CSCCC(=O)N3CN(CN(C3)C(=O)CCSC[C@H](N)C(=O)N[C@@H](CC(=O)O)C(=O)N[C@@H](Cc3c[nH]c4ccccc34)C(=O)N[C@@H](Cc3c[nH]cn3)C(=O)N[C@@H](Cc3c[nH]c4ccccc34)C(=O)N[C@@H](CCC(=O)O)C(=O)N[C@@H](Cc3ccc(O)cc3)C(=O)N[C@@H](CC(=O)O)C(=O)N2)C(=O)CCSC[C@@H](C(=O)NCC(=O)N[C@@H](C)C(=O)NCC(=O)N[C@@H](CCC(=O)O)C(=O)N[C@@H](CO)C(=O)N[C@@H](CO)C(N)=O)NC(=O)[C@H](CO)NC1=O` [Example 228, (SEQ ID NO: 144)-GAGESS]: 2300 nM; for `CC(C)C[C@@H]1NC(=O)[C@H](CO)NC(=O)[C@@H](NC(=O)[C@H](C)N)CSCCC(=O)N2CN3CN(C2)C(=O)CCSC[C@@H](C(=O)N[C@@H](C)C(N)=O)NC(=O)[C@H]([C@@H](C)O)NC(=O)[C@H](Cc2c[nH]c4ccccc24)NC(=O)[C@H](Cc2c[nH]c4ccccc24)NC(=O)[C@H](CC(N)=O)NC(=O)[C@H](Cc2c[nH]cn2)NC(=O)[C@H](CSCCC3=O)NC(=O)[C@H](CO)NC(=O)[C@H](Cc2c[nH]c3ccccc23)NC(=O)[C@@H]2CCCN2C(=O)[C@H](CC(=O)O)NC1=O` [Example 229, A-(SEQ ID NO: 156)-A] (H-ACSLDPWSCHNWWTCA-NH2; linker 2-9-15 via TATA; N-terminus and C-terminus assumed): 9900 nM.
Regarding `CC(C)C[C@@H]1NC(=O)[C@H](C)NC(=O)[C@@H](NC(=O)[C@H](C)N)CSCCC(=O)N2CN3CN(C2)C(=O)CCSC[C@H](NC(=O)[C@H](C(C)C)NC(=O)[C@H](Cc2c[nH]c4ccccc24)NC(=O)[C@@H]2CCCN2C(=O)[C@H](CC(=O)O)NC1=O)C(=O)N1CCC[C@H]1C(=O)N[C@@H](CCC(N)=O)C(=O)N[C@@H](Cc1c[nH]c2ccccc12)C(=O)N[C@@H](Cc1c[nH]c2ccccc12)C(=O)N[C@@H](CC(=O)O)C(=O)N[C@H](C(=O)N[C@@H](C)C(N)=O)CSCCC3=O` [Example 230, A-(SEQ ID NO: 157)-A] (H-ACALDPWVCPQWWDCA-NH2; linker 2-9-15 via TATA; N-terminus and C-terminus assumed), the dissociation constant (Kd) turned out to be 960 nM.
The same measure for `CC(C)C[C@@H]1NC(=O)[C@@H]2CSCCC(=O)N3CN(CN(C3)C(=O)CCSC[C@@H](C(=O)N[C@@H](C)C(N)=O)NC(=O)[C@H](CCC(=O)O)NC(=O)[C@@H]3CCCN3C(=O)[C@H](CCC(N)=O)NC(=O)[C@H](Cc3ccc(O)cc3)NC(=O)[C@H](CC(C)C)NC1=O)C(=O)CCSC[C@H](NC(=O)[C@H](C)N)C(=O)N[C@@H](CCC(N)=O)C(=O)N[C@@H](CCC(=O)O)C(=O)N[C@@H](Cc1c[nH]cn1)C(=O)N[C@@H](CC(=O)O)C(=O)N[C@@H](Cc1c[nH]c3ccccc13)C(=O)N[C@@H](Cc1ccc(O)cc1)C(=O)N2` [Example 231, A-(SEQ ID NO: 158)-A] (H-ACQEHDWYCLLYQPECA-NH2; linker 2-9-16 via TATA; N-terminus and C-terminus assumed): 1800 nM; for `CC[C@H](C)[C@@H]1NC(=O)[C@H](Cc2c[nH]c3ccccc23)NC(=O)[C@@H]2CSCCC(=O)N3CN(CN(C3)C(=O)CCSC[C@@H](C(=O)N[C@@H](C)C(N)=O)NC(=O)[C@H](CC(C)C)NC(=O)[C@H]([C@@H](C)O)NC(=O)[C@H](CCCCN)NC(=O)[C@H](Cc3ccccc3)NC1=O)C(=O)CCSC[C@H](NC(=O)[C@H](C)N)C(=O)N[C@@H](CC(=O)O)C(=O)N[C@@H](CCC(=O)O)C(=O)N[C@@H](CC(C)C)C(=O)N[C@@H](CC(=O)O)C(=O)N[C@@H]([C@@H](C)CC)C(=O)N1CCC[C@H]1C(=O)N2` [Example 232, A-(SEQ ID NO: 159)-A] (H-ACDELDIPCWIFKTLCA-NH2; linker 2-9-16 via TATA; N-terminus and C-terminus assumed): 8300 nM.
